For data set [1], the system named is right atrial and papillary muscles. To be noted: non-specific PDE inhibitor; general statement; cited from earlier work.
The target in data set [2] is T1, GST fusion protein of the human recombinant phosphodiesterase IVa (met-248) (Homo sapiens, UniProt P27815).
T1 construct: GST-Met 248 PDE IVa; made in house; host or cells: Sf-9 insect cells (baculovirus expression system)
Briefly: SPA based PDE activity assay (hydrolysis of cAMP to AMP). The format is biochemical. Particulars: 100 nM cAMP; purified GST fusion protein, baculovirus/Sf-9; 10 min at 30° C. The protocol:
Phosphodiesterase Scintillation Proximity Assay
CHO-K1 cells were lysed by sonication for 10 secs at a power setting of 50% (Braunsonic Model 2000) in an ice cold solution containing 50 mM Tris, pH 7.5; 1 mM EDTA; and 200 mM b-mercaptoethanol.
The soluble and particulate fractions of the cell were obtained by centrifuging the sonicate for 90 min. at 100,000 x g at 4° C. PDE activity was measured in a solution containing 50 mM Tris, pH 7.5; 10 mM MgCl2; 1 mM EDTA; and 100 nM (or indicated) ^3 H-cAMP (100 ml final volume) in the presence of varying concentrations of inhibitor. The reaction mixture containing enzyme was incubated for 10 min. at 30° C. in 96-well View Plates (Packard), and terminated by the addition of 50 ml Phosphodiesterase Scintillation Proximity Assay (SPA) Beads (Amersham) containing 18 mM ZnSO4. The amount of ^3 H-cAMP hydrolysis was determined by counting the plates in a Wallac 1450 mBeta LSC counter.
SPA based PDE activity assay protocol
Compounds which inhibit the hydrolysis of cAMP to AMP by the type-IV cAMP-specific phosphodiesterases were screened in 96-well plate format as follows:
In a 96 well-plate at 30° C. was added the test compound (dissolved in 2 ul DMSO), 188 ml of substrate buffer containing [2,8-^3 H] adenosine 3',5'-cyclic phosphate (cAMP, 100 nM to 50 μM), 10 mM MgCl2, 1 mM EDTA, 50 mM Tris, pH 7.5. The reaction was initiated by the addition of […] of human recombinant PDE-IV (the amount was controlled so that~10% product was formed in 10 min. at 30° C). The reaction was stopped after 10 min. by the addition of 1 mg of PDE-SPA beads (Amersham). The product AMP generated was quantified on a Microbeta 96-well plate counter. The signal in the absence of enzyme was defined as the background. 100% activity was defined as the signal detected in the presence of enzyme and DMSO with the background subtracted. Percentage of inhibition was calculated accordingly. IC50 value was approximated with a non-linear regression fit of the standard 4-parameter/multiple binding sites equation from a ten point titration.
IC50 values shown in Table 2 were determined with 100 nM cAMP using the purified GST fusion protein of the human recombinant phosphodiesterase IVa (met-248) produced from a baculovirus/Sf-9 expression system.

The subject of data set [3] is right atrial and papillary muscles. Kind of data set: Effects on cardiac muscle in vitro. The arrangement: species or system guinea pigs. To be noted: reference PDE inhibitors; no concentration given. The source says: Right atrial and papillary muscles were dissected out from the hearts of guinea pigs and suspended in organ baths for measuring the rate (chronotropic) of spontaneously beating atria and force (inotropic) of the electrically stimulated papillary muscle.

T1 sequence (P27815 248-886 limits assumed): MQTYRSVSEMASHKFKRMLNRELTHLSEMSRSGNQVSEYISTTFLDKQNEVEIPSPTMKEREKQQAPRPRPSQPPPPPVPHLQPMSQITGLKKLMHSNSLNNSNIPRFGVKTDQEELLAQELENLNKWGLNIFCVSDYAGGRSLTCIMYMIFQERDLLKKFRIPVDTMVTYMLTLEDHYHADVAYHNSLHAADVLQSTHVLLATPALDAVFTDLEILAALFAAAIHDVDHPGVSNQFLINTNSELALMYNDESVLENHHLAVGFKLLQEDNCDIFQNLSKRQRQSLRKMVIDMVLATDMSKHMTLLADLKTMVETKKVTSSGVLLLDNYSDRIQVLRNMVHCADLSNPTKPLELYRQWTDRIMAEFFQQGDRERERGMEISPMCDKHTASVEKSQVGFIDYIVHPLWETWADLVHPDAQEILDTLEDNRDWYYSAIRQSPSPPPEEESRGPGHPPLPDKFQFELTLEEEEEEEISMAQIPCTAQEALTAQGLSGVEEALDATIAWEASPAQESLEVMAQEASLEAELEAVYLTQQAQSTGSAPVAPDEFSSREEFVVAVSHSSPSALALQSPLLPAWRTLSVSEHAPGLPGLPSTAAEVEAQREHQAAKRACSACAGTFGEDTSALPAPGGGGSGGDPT

Regarding `Cn1c(=O)c2[nH]cnc2n(C)c1=O` [theophylline], the cardiovascular changes entry in data set [1] is on record as “significant cardiovascular changes such as tachycardia”. `COc1ccc([C@H](Cc2ccncc2)c2ccc(-c3nnn[nH]3)cc2)cc1OC1CCCC1` [Example 4, (R)-4-{2-(3-Cyclopentyloxy-4-methoxyphenyl)-2-[4-(tetrazol-5-yl)phenyl]ethyl}pyridine]: the IC50 – broadly, the concentration that inhibits the measured activity by half – in data set [2] is 2 nM. On the same count and under the same terms, the same measure for `COc1ccc([C@H](Cc2ccncc2)c2ccc(C(C)=O)cc2)cc1OC1CCCC1` [Example 6, (R)-4-[2-(3-Cyclopentyloxy-4-methoxyphenyl)-2-(4-acetylphenyl)ethyl]pyridine]: 3 nM; for `COc1ccc([C@H](Cc2ccncc2)c2ccc(C=NO)cc2)cc1OC1CCCC1` [Example 3, (R)-4-[1-(3-Cyclopentyloxy-4-methoxyphenyl)-2-(4-pyridyl)ethyl]benzaldehyde oxime]: 3 nM; for `COc1ccc([C@H](Cc2ccncc2)c2ccc(C(=O)N3CCN(C)CC3)cc2)cc1OC1CCCC1` [Example 1, (R)-4-{2-(3-Cyclopentyloxy-4-methoxyphenyl)-2-[4-(4-methylpiperazinocarbonyl)pheny]lethyl}pyridine]: 0.8 nM. In the case of `COc1ccc(C2CNC(=O)C2)cc1OC1CCCC1` (stereo not drawn) [rolipram], the “direct (chronotropic and inotropic) effects in these preparations” value in data set [3] is listed as “do not have any direct effects”. Take `COc1ccc([C@H](Cc2ccncc2)c2ccc(C(=O)N3CCCC3)cc2)cc1OC1CCCC1` [Example 2, (R)-4-[2-(3-Cyclopentyloxy-4-methoxyphenyl)-2-(4-pyrrolidinocarbonylphenyl)ethyl]pyridine]: the 50% inhibitory concentration (IC50) in data set [2] came out at 1 nM. Still for that read-out and setting: then `COc1ccc([C@H](Cc2ccncc2)c2ccc(C(C)O)cc2)cc1OC1CCCC1` (stereo partly drawn) [Example 5, (R)-4-{2-(3-Cyclopentyloxy-4-methoxyphenyl)-2-[4-(1-hydroxyethyl)phenyl]ethyl}pyridine], with 2 nM.

Turning to `Cc1[nH]c(=O)c(C#N)cc1-c1ccncc1` [milrinone], the “direct (chronotropic and inotropic) effects in these preparations” value in data set [3] is “positive chronotropic and inotropic effects”.

The values are drawn from patent publication US5710160A, “Diphenyl pyridyl ethane derivatives as PDE IV inhibitors” (Merck Frosst Canada, Inc., priority 1996, dated 1998).
